Data taken from patent US12303594B2, “Antimicrobial and anti-inflammatory compositions” (The Texas A&M University System, priority 2015, dated 2025).

Assays:
PA01 [1] = experiment: Endpoint CFU counting; conditions: 6 hours in MH, free ibuprofen
[2] = Helium pycnometry true density; type: physicochemical; conditions: N = 3
Procedure: Helium pycnometry: True densities were measured using an MVP-D160-E multipycnometer (Quantrachrome Instruments; FL, USA) equipped with the micro cell and adapter. Measurements were conducted in triplicates. Before pressure measurements, the multipycnometer was purged with helium gas according to the manufacturer's recommendations.
True densities were measured using a MVP-D160-E multipycnometer (Quantrachrome Instruments; FL, USA). For density measurements, the micro cell and the micro cell adapter were used, and samples weighed at least 0.1 g for the jet-milled powders depending on availability and at least 0.6 g for the unprocessed powders.

PA01 [3] = experiment: Mouse model of acute P. aeruginosa pneumonia (bacterial burden, weight, clinical scores); type: in vivo, mice
[4] = Angle of repose (USP method); type: physicochemical; conditions: N = 3
Procedure: Angle of repose: Angles of repose were measured in triplicate according to the United States Pharmacopoeia (USP) method. Images of the powder mounds were taken using a digital camera and were analyzed using the ImageJ software (Wayne Rasband, Research Services Branch, National Institute of Mental Health, Bethesda, MD, USA). […]

PA01 [5] = experiment: In vivo survival study after P. aeruginosa infection; design: species or system mice
Procedure: […]. […] […]. Also, the mice were weighed and assigned clinical scores, a semi-quantitative metric that rates their signs of infection from asymptomatic (0) to moribund (6), at the start of the study, at 12 hours, and at the termination of the study. […]. For this study, the mice were administered treatment on the same schedule and were observed continuously for their time of death over the course of 72 hours, by the end of which any surviving mice begin to recover. […].

[6] = tested on: Burkholderia multivorans, BM; experiment: In vitro bacterial growth study (OD600); conditions: 10 μg/mL or 1 μg/mL ibuprofen solution added 1:1 (v:v)
[7] = Brunauer-Emmett-Teller specific surface area; type: physicochemical
Procedure: Brunauer-Emmett-Teller: Surface area (SA) was evaluated via a single-point BET method using a Monosorb® surface area analyzer (Quantrachrome Instruments; FL, USA) following 24 hour outgassing with helium at room temperature (RT) before each measurement in triplicate on a known powder mass (m). SSA was calculated using Equation 3: […]
Brunauer-Emmett-Teller (BET) specific surface area (SSA) measurements were taken. Surface area (SA) was evaluated via a single-point BET method using a Monosorb® surface area analyzer (Quantrachrome Instruments; FL, USA) following 24 hour outgassing with helium at room temperature before each measurement in triplicates. Samples masses (m) were at least 50 mg for the jet-milled powders depending on availability and 500 mg for the unprocessed samples. SSA was calculated according to the following formula: […]

[8] = Solubilization in aqueous DMSO/phosphate buffer solution; type: physicochemical; conditions: aqueous solution of 1% v/v DMSO in phosphate buffer, DMSO (1% v/v) and phosphate (PO4) buffer, read-out: concentration solubilized
[9] = tested on: Staphylococcus aureus vancomycin-intermediate (VISA) strain (Mu50); experiment: Endpoint CFU counting; conditions: 6 hours in MH, free ibuprofen
PA HP3 = experiment: Endpoint time-kill synergy study; conditions: ibuprofen with sub-MIC antimicrobial vs antimicrobial alone, 9 hours
[10] = tested on: Pseudomonas aeruginosa, PA01; experiment: In vitro bacterial growth study (OD600); conditions: 10 μg/mL or 1 μg/mL ibuprofen solution added 1:1 (v:v)
[11] = tested on: Escherichia coli strain EC J53+pmg101; experiment: In vitro bacterial growth study (OD600); type: cell-based; conditions: 10 μg/mL or 1 μg/mL ibuprofen solution added 1:1 (v:v)
[12] = 0.75 mg in syrup by mouth every 8 hours, 36 hours post-infection, vs syrup only

CC(C)Cc1ccc(C(C)C(=O)O)cc1 (centres unmarked) [ibuprofen, 2(4-isobutylphenyl)propanoic acid]
CFU (PA01 [1]): Significant reduction in CFU
ρ (true density) [2]: 1.14 ± 0.00 g/mL
lung bacterial burden (CFU counts) (PA01 [3]; [12]): Significant reductions
spleen bacterial burden (CFU counts) (PA01 [3]; [12]): Significant reductions
weight loss after infection (PA01 [3]; 36 hour study): no significant effect
Angle of Repose [4]: 62.6 ± 2.9 º
survival (PA01 [5]; 72 hours, treated mice): 92%
weight loss (PA01 [5]; day 3): less weight loss
clinical scores (PA01 [5]; days 2 and 3): significantly better clinical scores
bacterial growth (OD600) [6]: slowed and/or delayed the growth
surface area [7]: 0.357±0.005 m^2/g
SSA ([7]; N = 3): 0.36 ± 0.01 m^2/g
solubility [8]: ≤ 5 mg/mL
CFU [9]: Significant reduction in CFU
killing efficacy of ceftazidime and gentamicin (CFU/ml) (PA HP3): significantly increased the killing efficacy of both ceftazidime and gentamicin
bacterial growth (OD600) [10]: slowed and/or delayed the growth
bacterial growth (OD600) [11]: slowed and/or delayed the growth
